# Data from US10681909B2, “Herbicidal triazoles” (FMC Corporation, priority 2014, dated 2020).
# Legend:
# [1] = test system: corn; experiment: Test A preemergence; format: in vivo, Zea mays; settings: 0 to 100 scale (0 no effect, 100 complete control)
# In short: (§1)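 Plant seeds in loam soil blended with sand, then apply test chemical preemergence as a directed soil spray; in parallel, spray potted seedlings (one- to two-leaf, 2 to 10 cm) postemergence. Both treatments use a non-phytotoxic solvent mixture with surfactant.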
# [2] = test system: barnyardgrass; experiment: Test A postemergence; format: in vivo, Echinochloa crus-galli; settings: 0 to 100 scale (0 no effect, 100 complete control), approx. 10 d
# In short: as §1
# [3] = test system: foxtail, giant; experiment: Test A preemergence; format: in vivo, Setaria faberii; settings: 0 to 100 scale (0 no effect, 100 complete control)
# In short: as §1
# [4] = test system: pigweed; experiment: Test A postemergence; format: in vivo, Amaranthus retroflexus; settings: 0 to 100 scale (0 no effect, 100 complete control), approx. 10 d
# In short: as §1
# [5] = test system: pigweed; experiment: Test A preemergence; format: in vivo, Amaranthus retroflexus; settings: 0 to 100 scale (0 no effect, 100 complete control)
# In short: as §1
# [6] = test system: barnyardgrass; experiment: Test A preemergence; format: in vivo, Echinochloa crus-galli; settings: 0 to 100 scale (0 no effect, 100 complete control)
# In short: as §1
# [7] = test system: foxtail, giant; experiment: Test A postemergence; format: in vivo, Setaria faberii; settings: 0 to 100 scale (0 no effect, 100 complete control), approx. 10 d
# In short: as §1
# [8] = test system: morningglory; experiment: Test A postemergence; format: in vivo, Ipomoea spp.; settings: 0 to 100 scale (0 no effect, 100 complete control), approx. 10 d
# In short: as §1
# [9] = test system: crabgrass, large; experiment: Test A postemergence; format: in vivo, Digitaria sanguinalis; settings: 0 to 100 scale (0 no effect, 100 complete control), approx. 10 d
# In short: as §1
# [10] = test system: rice; experiment: Test C flooded paddy test; format: in vivo, Oryza sativa; settings: Flood, applied to paddy water, rating after 13 to 15 d
# Excerpt: (§2) At time of treatment, test pots were flooded to 3 cm above the soil surface, treated by application of test compounds directly to the paddy water, and then maintained at that water depth for the duration of the test. Treated plants and controls were maintained in a greenhouse for 13 to 15 d, after which time all species were compared to controls and visually evaluated. […] A dash (-) response means no test result.
# [11] = test system: wheat; experiment: Test A postemergence; format: in vivo, Triticum aestivum; settings: 0 to 100 scale (0 no effect, 100 complete control), approx. 10 d
# In short: as §1
# [12] = test system: ducksalad; experiment: Test C flooded paddy test; format: in vivo, Heteranthera limosa; settings: Flood, applied to paddy water, rating after 13 to 15 d
# Excerpt: as §2
# [13] = test system: velvetleaf; experiment: Test A postemergence; format: in vivo, Abutilon theophrasti; settings: 0 to 100 scale (0 no effect, 100 complete control), approx. 10 d
# In short: as §1
# [14] = test system: morningglory; experiment: Test A preemergence; format: in vivo, Ipomoea spp.; settings: 0 to 100 scale (0 no effect, 100 complete control)
# In short: as §1
# [15] = test system: sedge, umbrella; experiment: Test C flooded paddy test; format: in vivo, Cyperus difformis; settings: Flood, applied to paddy water, rating after 13 to 15 d
# Excerpt: as §2
# [16] = test system: crabgrass, large; experiment: Test A preemergence; format: in vivo, Digitaria sanguinalis; settings: 0 to 100 scale (0 no effect, 100 complete control)
# In short: as §1
# [17] = test system: barnyardgrass; experiment: Test C flooded paddy test; format: in vivo, Echinochloa crus-galli; settings: Flood, applied to paddy water, rating after 13 to 15 d
# Excerpt: as §2
# [18] = test system: velvetleaf; experiment: Test A preemergence; format: in vivo, Abutilon theophrasti; settings: 0 to 100 scale (0 no effect, 100 complete control)
# In short: as §1
# [19] = test system: corn; experiment: Test A postemergence; format: in vivo, Zea mays; settings: 0 to 100 scale (0 no effect, 100 complete control), approx. 10 d
# In short: as §1
# [20] = test system: wheat; experiment: Test A preemergence; format: in vivo, Triticum aestivum; settings: 0 to 100 scale (0 no effect, 100 complete control)
# In short: as §1
compound,measurement,setting,value
Cc1nc(-c2ccc(C(F)(F)F)cc2)nn1Cc1cccc(OC(F)(F)F)c1 [Compound 4],"Plant response rating, Corn",[1]; 125 g ai/ha,0
same,"Plant response rating, Corn","[1]; 500 g ai/ha, approx. 10 d",0
same,"Plant response rating, Barnyardgrass",[2]; 125 g ai/ha,0
same,"Plant response rating, Barnyardgrass",[2]; 500 g ai/ha,10
same,"Plant response rating, Foxtail, Giant",[3]; 125 g ai/ha,0
same,"Plant response rating, Foxtail, Giant","[3]; 500 g ai/ha, approx. 10 d",0
same,"Plant response rating, Pigweed",[4]; 125 g ai/ha,40
same,"Plant response rating, Pigweed",[4]; 500 g ai/ha,80
same,"Plant response rating, Pigweed",[5]; 125 g ai/ha,0
same,"Plant response rating, Pigweed","[5]; 500 g ai/ha, approx. 10 d",0
same,"Plant response rating, Barnyardgrass",[6]; 125 g ai/ha,0
same,"Plant response rating, Barnyardgrass","[6]; 500 g ai/ha, approx. 10 d",0
same,"Plant response rating, Foxtail, Giant",[7]; 125 g ai/ha,10
same,"Plant response rating, Foxtail, Giant",[7]; 500 g ai/ha,10
same,"Plant response rating, Morningglory",[8]; 125 g ai/ha,10
same,"Plant response rating, Morningglory",[8]; 500 g ai/ha,60
same,"Plant response rating, Crabgrass, Large",[9]; 125 g ai/ha,10
same,"Plant response rating, Crabgrass, Large",[9]; 500 g ai/ha,10
same,Rice plant response rating (0 to 100),[10]; 31 g ai/ha,0
same,Rice plant response rating (0 to 100),[10]; 62 g ai/ha,0
same,Rice plant response rating (0 to 100),[10]; 125 g ai/ha,0
same,Rice plant response rating (0 to 100),[10]; 250 g ai/ha,0
same,"Plant response rating, Wheat",[11]; 125 g ai/ha,0
same,"Plant response rating, Wheat",[11]; 500 g ai/ha,0
same,Ducksalad plant response rating (0 to 100),[12]; 31 g ai/ha,0
same,Ducksalad plant response rating (0 to 100),[12]; 62 g ai/ha,0
same,Ducksalad plant response rating (0 to 100),[12]; 125 g ai/ha,0
same,Ducksalad plant response rating (0 to 100),[12]; 250 g ai/ha,0
same,"Plant response rating, Velvetleaf",[13]; 125 g ai/ha,0
same,"Plant response rating, Velvetleaf",[13]; 500 g ai/ha,10
same,"Plant response rating, Morningglory",[14]; 125 g ai/ha,0
same,"Plant response rating, Morningglory","[14]; 500 g ai/ha, approx. 10 d",0
same,"Sedge, Umbrella plant response rating (0 to 100)",[15]; 31 g ai/ha,0
same,"Sedge, Umbrella plant response rating (0 to 100)",[15]; 62 g ai/ha,0
same,"Sedge, Umbrella plant response rating (0 to 100)",[15]; 125 g ai/ha,0
same,"Sedge, Umbrella plant response rating (0 to 100)",[15]; 250 g ai/ha,0
same,"Plant response rating, Crabgrass, Large",[16]; 125 g ai/ha,0
same,"Plant response rating, Crabgrass, Large","[16]; 500 g ai/ha, approx. 10 d",0
same,Barnyardgrass plant response rating (0 to 100),[17]; 31 g ai/ha,0
same,Barnyardgrass plant response rating (0 to 100),[17]; 62 g ai/ha,0
same,Barnyardgrass plant response rating (0 to 100),[17]; 125 g ai/ha,0
same,Barnyardgrass plant response rating (0 to 100),[17]; 250 g ai/ha,0
same,"Plant response rating, Velvetleaf",[18]; 125 g ai/ha,0
same,"Plant response rating, Velvetleaf","[18]; 500 g ai/ha, approx. 10 d",0
same,"Plant response rating, Corn",[19]; 125 g ai/ha,10
same,"Plant response rating, Corn",[19]; 500 g ai/ha,10
same,"Plant response rating, Wheat",[20]; 125 g ai/ha,0
same,"Plant response rating, Wheat","[20]; 500 g ai/ha, approx. 10 d",0
